Experimental data: US20260226043A1, “POLYMORPHS OF THE MALEIC ACID SALT OF LINAPRAZAN GLURATE” (Cinclus Pharma Holding AB (publ), priority 2023, published 2026)
“Also recorded” adds a separate entry of the source. Like-named read-outs stand apart in the source and are kept apart here. Marks after values point to notes of the source that are not given here.

Key:
[1] = Thermogravimetric analysis (TGA)
Experimental: Analyses were performed on a PerkinElmer TGA7 instrument. A few mg of sample was gently charged into open Pt-pans and analysed by weight in a flow of dry nitrogen gas (20 mL/min), to ensure an inert atmosphere. The sample was scanned from 25 to 200° C. using a continuous scan speed of 10° C./min. The weight loss was calculated from 25° C. up to 145° C.

[2] = Gravimetric/dynamic vapour sorption (GVS/DVS)
Experimental: Analyses were performed on an SMS DVS-1 instrument. A few mg of the substance was added into an Al pan and exposed to stepwise RH changes during two consecutive cycles according to 20-80-0-90-0%, in steps of 10% RH, using open loop mode. The experiments were performed using a gas flow rate of 200 mL/min and at 25° C. The dm/dt criteria applied was 0.001 weight-%/min during a 5-minute window, with a maximum allowed time of 360 minutes and a minimum allowed time of 10 minutes for all steps.
The hygroscopicity of Form 1 (obtained from the synthesis described below in example 1) was investigated using GVS at 25° C.

[3] = Slurry experiments (solid form stability, XRPD); type: physicochemical
Experimental: Slurry experiments were performed in various solvents. The samples were slurried for different periods of time depending on temperature. […] The water-containing slurries were performed to investigate possible hydrate formation.
Details of all slurry experiments performed, including solvent(s) used, total concentration and final form by XRPD, are given in Table 1.
Approximately 30 mg of linaprazan glurate maleic acid salt was used for each experiment, together with 20 different solvents (pure and binary solvents) at room temperature, at 4° C., at 40° C., and at 60° C., unless indicated otherwise. […] The solid phase was isolated and analysed with XRPD. The sample run at fridge temperature (ca 4° C.) was analysed after 26 and 53 days of slurry. The samples run at RT were analysed after 26 days of slurry. The samples run at 40° C. were analysed after 6 and 12 days of slurry. The samples run at 60° C. were analysed after 1 day of slurry.

[4] = free base Form A; cited from earlier work
[5] = cited from earlier work
[6] = cited from earlier work; remark: listed apart in the source
intragastric acidity = conditions: cited from earlier work
clinical = conditions: human, in vivo
Experimental: Linaprazan glurate is a prodrug of linaprazan, which was disclosed in WO 99/55706 and previously studied in Phase I and II studies. […] A clinical Phase I study has shown that administration of a single dose of linaprazan glurate can maintain the intragastric acidity above pH 4 for 24 hours. Linaprazan glurate is therefore tailored for patients with severe erosive gastroesophageal reflux disease (eGERD).
It is estimated that this requires a minimal plasma concentration (Cmin) of linaprazan of at least about 240 nmol/L after 22 hours. At such doses, a once daily oral administration of the formulation would be sufficient. In some embodiments, therefore, a single unit dose of a pharmaceutical composition of linaprazan glurate provides a Cmin of linaprazan in a human of at least about 240 nmol/L after 22 hours following oral administration of the pharmaceutical composition to said human. In other embodiments, a daily administration of two unit doses of a pharmaceutical composition of linaprazan glurate provides a Cmin of linaprazan in a human of at least about 240 nmol/L after 10 hours following oral administration of the last unit dose of the pharmaceutical composition to said human.

[7] = Phase I and II studies; cited from earlier work
gastric acid = conditions: Phase I and II studies; cited from earlier work

**Q.** Which “weight loss (TGA)” value [1] does the source give for `Cc1cccc(C)c1CNc1cc(C(=O)NCCOC(=O)CCCC(=O)O)cn2c(C)c(C)nc12.O=C(O)/C=C\C(=O)O` [Form 1, maleic acid salt of 5-{2-[({8-[(2,6-dimethylbenzyl)amino]-2,3-dimethylimidazo[1,2-a]pyridine-6-yl}carbonyl)-amino]ethoxy}-5-oxopentanoic acid] here?
**A.** 0.17%

**Q.** And the hygroscopicity classification ([2]; GVS/DVS at 25° C.)?
**A.** slightly hygroscopic; also recorded: low hygroscopicity

**Q.** And the water uptake ([2]; at 80% RH, dynamic vapour sorption)?
**A.** about 0.45%

**Q.** What about the uptake of water ([2]; humidity range 0 to 80% RH, GVS at 25° C.) of the same molecule?
**A.** ~0.4%

**Q.** What about the Solid state form ([3]; slurry in 1,4-dioxane, 63 mg/mL, 40° C., 6 and 12 days) of the same molecule?
**A.** Form 1

**Q.** And the Solid state form ([3]; slurry in 1,4-dioxane:DMA 9:1, 103 mg/mL, RT, 26 days)?
**A.** Form 1

**Q.** And the Solid state form ([3]; slurry in 2-propanol, 56 mg/mL, 40° C., 6 and 12 days)?
**A.** Form 1 + Crystalline

**Q.** And the Solid state form ([3]; slurry in 2-propanol:DMA 9:1, 91 mg/mL, RT, 26 days)?
**A.** Form 1

**Q.** And the Solid state form ([3]; slurry in DMA, 890 mg/mL, RT, 26 days)?
**A.** Crystalline base form

**Q.** What about the Solid state form ([3]; slurry in DMA, 1369 mg/mL, 40° C., 6 and 12 days) of the same molecule?
**A.** Form 1 + Crystalline

**Q.** And the Solid state form ([3]; slurry in EtOAc, 36 mg/mL, 40° C., 6 and 12 days)?
**A.** Form 1

**Q.** And the Solid state form ([3]; slurry in EtOAc:DMA 9:1, 89 mg/mL, RT, 26 days)?
**A.** Form 1 + Crystalline

**Q.** What about the Solid state form ([3]; slurry in EtOH, 61 mg/mL, 40° C., 6 and 12 days) of the same molecule?
**A.** Form 1 + Crystalline

**Q.** And the Solid state form ([3]; slurry in EtOH, 61 mg/mL, RT, 26 days)?
**A.** Form 1

**Q.** And the Solid state form ([3]; slurry in MIBK, 53 mg/mL, 40° C., 6 and 12 days)?
**A.** Form 1

**Q.** And the Solid state form ([3]; slurry in MIBK, 62 mg/mL, 60° C., 1 day)?
**A.** Form 1

**Q.** And the Solid state form ([3]; slurry in MIBK:DMA 9:1, 84 mg/mL, RT, 26 days)?
**A.** Form 1

**Q.** What about the Solid state form ([3]; slurry in MTBE, 68 mg/mL, 40° C., 6 and 12 days) of the same molecule?
**A.** Form 1 + MTBE solvate

**Q.** And the Solid state form ([3]; slurry in MTBE:DMA 9:1, 99 mg/mL, RT, 26 days, analysed also after 53 days)?
**A.** Form 1 + MTBE solvate*

**Q.** And the Solid state form ([3]; slurry in MeCN, 52 mg/mL, 40° C., 6 and 12 days)?
**A.** Form 1

**Q.** What about the Solid state form ([3]; slurry in MeCN, 63 mg/mL, 60° C., 1 day) of the same molecule?
**A.** Form 1

**Q.** And the Solid state form ([3]; slurry in MeCN:DMA 9:1, 85 mg/mL, RT, 26 days)?
**A.** Form 1 + Crystalline

**Q.** What about the Solid state form ([3]; slurry in MeOH, 51 mg/mL, 40° C., 6 and 12 days) of the same molecule?
**A.** Crystalline base form

**Q.** What about the Solid state form ([3]; slurry in MeOH, 55 mg/mL, RT, 26 days) of the same molecule?
**A.** Form 1 + Crystalline

**Q.** What about the Solid state form ([3]; slurry in MeOH:water 4:1, 52 mg/mL, ca 4° C., 26 and 53 days) of the same molecule?
**A.** Form 1 + Crystalline

**Q.** And the Solid state form ([3]; slurry in MeOH:water 4:1, 58 mg/mL, RT, 26 days)?
**A.** Crystalline base form

**Q.** What about the Solid state form ([3]; slurry in THF, 53 mg/mL, 40° C., 6 and 12 days) of the same molecule?
**A.** Form 1 + Crystalline

**Q.** What about the Solid state form ([3]; slurry in THF, 63 mg/mL, 60° C., 1 day) of the same molecule?
**A.** Form 1

**Q.** What about the Solid state form ([3]; slurry in THF:DMA 9:1, 93 mg/mL, RT, 26 days) of the same molecule?
**A.** Form 1 + Crystalline

**Q.** What about the Solid state form ([3]; slurry in acetone, 29 mg/mL, RT, analysed after 21 days) of the same molecule?
**A.** Form 1**

**Q.** And the Solid state form ([3]; slurry in benzyl alcohol, 332 mg/mL, RT, analysed after 21 days)?
**A.** Form 1**

**Q.** Which results are given for `Cc1cccc(C)c1CNc1cc(C(=O)NCCOC(=O)CCCC(=O)O)cn2c(C)c(C)nc12` [Form A]?
**A.** hygroscopicity [4]: very low hygroscopicity; physical and chemical stability [4]: good physical and chemical stability; solubility in water ([5]; pH 1): only slightly soluble; solubility in water ([5]; pH 6.8): practically insoluble

**Q.** For `Cc1cccc(C)c1CNc1cc(C(=O)NCCOC(=O)CCCC(=O)O)cn2c(C)c(C)nc12` [linaprazan glurate, 5-{2-[({8-[(2,6-dimethylbenzyl)amino]-2,3-dimethylimidazo[1,2-a]pyridine-6-yl}carbonyl)-amino]ethoxy}-5-oxopentanoic acid], which “plasma concentration of linaprazan glurate” value ([6]; after administration of linaprazan glurate) is on record?
**A.** only very low and difficult to determine

**Q.** What about the “half-life in the body” value ([6]; compared to linaprazan) of the same molecule?
**A.** longer half-life in the body

**Q.** What about the metabolism ([6]; following absorption into the blood stream) of the same molecule?
**A.** quickly metabolized into linaprazan

**Q.** What about the “control of the gastric acid production” value (intragastric acidity; compared to linaprazan) of the same molecule?
**A.** total control of the gastric acid production for a longer time

**Q.** And the “intragastric acidity (pH) maintained” value (intragastric acidity; single dose, maintained for 24 hours, clinical Phase I study)?
**A.** > 4

**Q.** Which results are given for `Cc1cccc(C)c1CNc1cc(C(=O)NCCO)cn2c(C)c(C)nc12` [linaprazan]?
**A.** concentration at 22 h (clinical): ≥ 240 nM; elimination from the body [7]: quickly eliminated from the body; tolerability [7]: well tolerated; duration of acid inhibition (gastric acid): too short duration of acid inhibition; onset of action / effect (gastric acid): fast onset of action and full effect at first dose
